Values after ≈ are worked out from the molar mass of the structure shown.
Assays:
[1] = test system: C. difficile clnR mutant; assay: clnR and clnA expression by qRT-PCR in LL-37; format: cell-based, Clostridioides difficile; details: 2 µg/ml LL-37, BHIS
Method: Fig 4 ClnR acts as a conditional repressor and inducer of clnRAB expression. […] RNA samples were collected and processed for qRT-PCR analysis as described in Methods. Graphs show the mean mRNA expression levels of A) clnR and B) clnA relative to expression in strain 630Δerm in BHIS alone. […] Data were analyzed by two-way ANOVA and Tukey’s multiple comparisons test, with comparisons indicated by brackets. * indicates p < 0.05, ** indicates p ≤ 0.0001.

[2] = test system: C. difficile clnR and clnA mutants; assay: Growth in BHIS with LL-37; details: 2.5 μg/ml LL-37 in BHIS, versus parent strain
[3] = test system: C. difficile clnR and clnAB mutants; assay: Growth in minimal medium with LL-37 (growth curves); details: 0.5 μg/ml LL-37; base MM, MM with mannitol, NAG, EA; versus parent strain
[4] = test system: C. difficile clnAB mutant (MC935); assay: Minimum bactericidal concentration (MBC); format: cell-based, Clostridioides difficile; details: 1:10 dilution into BHIS, 24 h, 37°C, anaerobic
[5] = test system: C. difficile clnR mutant; assay: qRT-PCR of selected RNA-seq transcripts in LL-37; details: 2 µg/ml LL-37; normalized to 630∆erm in BHIS; mean ± SEM, n ≥ 3
[6] = test system: C. difficile clnAB Tn::clnRAB; assay: Growth in minimal medium with LL-37, maximum doubling time; details: mean ± SD, n ≥ 3
[7] = test system: C. difficile 630Δerm; assay: Minimum bactericidal concentration (MBC); format: cell-based, Clostridioides difficile; details: 1:10 dilution into BHIS, 24 h, 37°C, anaerobic
[8] = test system: C. difficile clnAB mutant; assay: qRT-PCR of selected RNA-seq transcripts in LL-37; details: 2 µg/ml LL-37; normalized to 630∆erm in BHIS; mean ± SEM, n ≥ 3
[9] = test system: C. difficile 630Δerm; assay: qRT-PCR of selected RNA-seq transcripts in LL-37; details: 2 µg/ml LL-37; normalized to 630∆erm in BHIS; mean ± SEM, n ≥ 3
[10] = test system: C. difficile 630Δerm; assay: Growth in minimal medium with LL-37, maximum doubling time; details: mean ± SD, n ≥ 3
[11] = test system: TcdA in C. difficile clnR and clnAB mutants; assay: TcdA western blot; details: 2 μg/ml LL-37, TY medium, 24 h, 37°C
[12] = test system: C. difficile clnAB Tn::clnRAB; assay: qRT-PCR of selected RNA-seq transcripts in LL-37; details: 2 µg/ml LL-37; normalized to 630∆erm in BHIS; mean ± SEM, n ≥ 3
[13] = test system: C. difficile clnAB mutant; assay: Growth in minimal medium with LL-37, maximum doubling time; details: mean ± SD, n ≥ 3
[14] = test system: C. difficile clnR mutant; assay: as above; details: mean ± SD, n ≥ 3
[15] = test system: tcdA, tcdB, sigD, tcdR, ilvC, CD0341 expression in C. difficile 630Δerm; assay: Toxin and regulator gene expression by qRT-PCR in LL-37
[16] = test system: TcdA in C. difficile 630Δerm (parent strain); assay: TcdA western blot; details: 2 μg/ml LL-37, TY medium, 24 h, 37°C; three replicates
[17] = test system: C. difficile 630Δerm; assay: Minimum inhibitory concentration (MIC); format: cell-based, Clostridioides difficile; details: Mueller-Hinton Broth, 24 h, 37°C, anaerobic, ~5 x 10^5 CFU/ml
Method: (§1) Minimum inhibitory concentrations (MIC) were determined as previously described. […] Briefly, overnight cultures of C. difficile strains were diluted 1:50 in Mueller-Hinton Broth (Difco) and grown to OD600 of 0.45 (~5 x 10^7 CFU/ml). Cultures were then diluted 1:10 in MHB and seeded at a further 1:10 dilution in a round-bottom 96-well plate prepared with serial dilutions of antimicrobials for a starting concentration of ~5 x 10^5 CFU/ml. Plates were incubated for 24 h at 37°C in the anaerobic chamber.

[18] = test system: C. difficile clnR mutant (MC885); assay: Minimum inhibitory concentration (MIC); format: cell-based, Clostridioides difficile; details: Mueller-Hinton Broth, 24 h, 37°C, anaerobic, ~5 x 10^5 CFU/ml
Method: as §1

[19] = test system: C. difficile clnAB mutant (MC935); assay: Minimum inhibitory concentration (MIC); format: cell-based, Clostridioides difficile; details: Mueller-Hinton Broth, 24 h, 37°C, anaerobic, ~5 x 10^5 CFU/ml
Method: as §1

[20] = 0.5 µg/ml LL-37, MM + 30 mM NAG, § p < 0.05 vs no LL-37
[21] = 0.5 µg/ml LL-37, MM + 30 mM ethanolamine
[22] = 0.5 µg/ml LL-37, MM + 30 mM fructose
[23] = 0.5 µg/ml LL-37, MM + 30 mM glucose
[24] = 0.5 µg/ml LL-37, MM + 30 mM mannitol
[25] = 0.5 µg/ml LL-37, MM + 30 mM mannose
[26] = 2 μg/ml LL-37, BHIS, log phase, wild-type cells, p < 0.05
[27] = 2 µg/ml LL-37, normalized to 630∆erm in BHIS, mean of three replicates ± SEM

With `CC[C@H](C)[C@H](NC(=O)[C@H](CCCCN)NC(=O)[C@H](CCC(=O)O)NC(=O)[C@H](CCCCN)NC(=O)[C@H](CO)NC(=O)[C@H](CCCCN)NC(=O)[C@H](CCCNC(=N)N)NC(=O)[C@H](Cc1ccccc1)NC(=O)[C@H](Cc1ccccc1)NC(=O)[C@H](CC(=O)O)NC(=O)CNC(=O)[C@H](CC(C)C)NC(=O)[C@@H](N)CC(C)C)C(=O)NCC(=O)N[C@@H](CCCCN)C(=O)N[C@@H](CCC(=O)O)C(=O)N[C@@H](Cc1ccccc1)C(=O)N[C@@H](CCCCN)C(=O)N[C@@H](CCCNC(=N)N)C(=O)N[C@H](C(=O)N[C@H](C(=O)N[C@@H](CCC(N)=O)C(=O)N[C@@H](CCCNC(=N)N)C(=O)N[C@H](C(=O)N[C@@H](CCCCN)C(=O)N[C@@H](CC(=O)O)C(=O)N[C@@H](Cc1ccccc1)C(=O)N[C@@H](CC(C)C)C(=O)N[C@@H](CCCNC(=N)N)C(=O)N[C@@H](CC(N)=O)C(=O)N[C@@H](CC(C)C)C(=O)N[C@H](C(=O)N1CCC[C@H]1C(=O)N[C@@H](CCCNC(=N)N)C(=O)N[C@H](C(=O)N[C@@H](CCC(=O)O)C(=O)N[C@@H](CO)C(=O)O)[C@@H](C)O)C(C)C)[C@@H](C)CC)C(C)C)[C@@H](C)CC` [LL-37] the “clnR and clnA expression (in words)” value [1] was “no longer induced in the clnR mutant”, the “growth (in words)” value [2] was “grew slightly better than the parent strain” and the “growth (in words)” value [3] was “grew better than the parent strain”. The MBC [4] was 20 µg/mL (≈ 4.45 µM), the CD630_02840 relative expression [5] was 2.2 ± 0.5 and the “cstA (CD630_26000) relative expression” value [5] was 2.3 ± 0.5. The “grdA (CD630_23520) relative expression” value [5] was 1.4 ± 0.1, the “mtlA (CD630_23340) relative expression” value [5] was 1.2 ± 0.7 and the “sigT (csfT; CD630_06770) relative expression” value [5] was 2.3 ± 1.1. For the same molecule, the “sigU (csfU; CD630_18870) relative expression” value [5] was 2.0 ± 0.6, the “vanZ1 (CD630_12400) relative expression” value [5] was 13.4 ± 5.8 and the Doubling time [6, 20] was 83.6 ± 1.7 min. The Doubling time [6, 21] was 84.0 ± 6.7 min, the Doubling time [6, 22] was 69.8 ± 2.5 min and the Doubling time [6, 23] was 70.8 ± 4.8 min. It also gave a Doubling time [6, 24] of 66.4 ± 1.8 min, a Doubling time [6, 25] of 72.6 ± 3.1 min and a Doubling time ([6]; 0.5 µg/ml LL-37, base MM) of 76.4 ± 2.6 min. The MBC [7] was 20 µg/mL (≈ 4.45 µM), the “cstA (CD630_26000) relative expression” value [8] was 2.9 ± 1.2 and the “iorA (CD630_23810) relative expression” value [8] was 20.5 ± 7.3. The “mtlA (CD630_23340) relative expression” value [8] was 5.5 ± 4.3, the “sigT (csfT; CD630_06770) relative expression” value [8] was 1.2 ± 0.1 and the “sigU (csfU; CD630_18870) relative expression” value [8] was 3.1 ± 1.4. The “vanZ1 (CD630_12400) relative expression” value [8] was 0.9 ± 0.2, the CD630_02840 relative expression [9] was 29.3 ± 18.8 and the “grdA (CD630_23520) relative expression” value [9] was 16.5 ± 10.5. For the same molecule, the “iorA (CD630_23810) relative expression” value [9] was 16.8 ± 8.4, the “mtlA (CD630_23340) relative expression” value [9] was 1.0 ± 0.3 and the “sigU (csfU; CD630_18870) relative expression” value [9] was 10.5 ± 6.8. The Doubling time [10, 20] was 91.5 ± 5.7 min, the Doubling time [10, 21] was 90.7 ± 7.9 min and the Doubling time [10, 22] was 70.2 ± 3.9 min. For the same molecule, the Doubling time [10, 23] was 67.7 ± 4.9 min, the Doubling time [10, 24] was 69.9 ± 3.4 min and the Doubling time [10, 25] was 70.3 ± 5.5 min. The Doubling time ([10]; 0.5 µg/ml LL-37, base MM) was 82.2 ± 5.1 min, the “TcdA levels (in words)” value [11] was “TcdA levels did not change” and the “cstA (CD630_26000) relative expression” value [12] was 1.3 ± 0.2. For the same molecule, the “grdA (CD630_23520) relative expression” value [12] was 1.6 ± 0.2, the “mtlA (CD630_23340) relative expression” value [12] was 0.7 ± 0.4 and the “sigT (csfT; CD630_06770) relative expression” value [12] was 1.2 ± 0.2. The “sigU (csfU; CD630_18870) relative expression” value [12] was 0.8 ± 0.1, the “vanZ1 (CD630_12400) relative expression” value [12] was 0.6 ± 0.1 and the Doubling time [13, 20] was 80.3 ± 1.0 min. The Doubling time [13, 21] was 79.6 ± 9.0 min, the Doubling time [13, 22] was 65.1 ± 2.0 min and the Doubling time [13, 23] was 62.1 ± 2.2 min. It also gave a Doubling time [13, 24] of 58.3 ± 5.5 min, a Doubling time [13, 25] of 66.8 ± 4.5 min and a Doubling time ([13]; 0.5 µg/ml LL-37, base MM) of 77.1 ± 5.3 min. The Doubling time ([14]; 0.5 µg/ml LL-37, MM + 30 mM NAG) was 86.6 ± 2.5 min, the Doubling time [14, 21] was 84.9 ± 4.6 min and the Doubling time [14, 22] was 72.4 ± 0.9 min. For the same molecule, the Doubling time [14, 23] was 74.0 ± 1.7 min, the Doubling time [14, 24] was 67.3 ± 1.5 min and the Doubling time [14, 25] was 78.4 ± 4.9 min. The Doubling time ([14]; 0.5 µg/ml LL-37, base MM) was 74.1 ± 4.8 min, the “tcdA expression, fold increase” value [15, 26] was 4.6 fold and the “tcdB expression, fold increase” value [15, 26] was 2.2 fold. The “sigD fold-change in expression in LL-37” value [15, 27] was 0.95 ± 0.08, the “tcdR fold-change in expression in LL-37” value [15, 27] was 1.47 ± 0.44 and the “ilvC fold-change in expression in LL-37” value ([15]; 2 µg/ml LL-37, normalized to 630∆erm in BHIS, mean of three replicates ± SEM, indicates CodY activity) was 2.21 ± 0.20. The “ilvC expression, fold increase” value ([15]; LL-37, p < 0.05) was 2.2 fold, the “TcdA levels, fold decrease” value [16] was “about 3 fold” and the MIC [17] was 15 µg/mL (≈ 3.34 µM). It also gave an MIC [18] of 15 µg/mL (≈ 3.34 µM) and an MIC [19] of 15 µg/mL (≈ 3.34 µM).

Source: article PMC6117091, “The C. difficile clnRAB operon initiates adaptations to the host environment in response to LL-37” (PLoS Pathogens, 2018)
